The values that follow come from patent US20130102595A1 (Curis, Inc., priority 2011, published 2013).

One assay addresses T1, PI3Kγ (p120γ) (Homo sapiens, UniProt P48736).
T1 construct: His (N); made in house; host or cells: Baculovirus-infected Sf9 cells
Put plainly: PI3Kγ ADP-Glo assay. In kind it is biochemical. To be noted: 20 μM PIP2, 10 μM ATP, 90 minutes. On the procedure: (d) an In Vitro Assay which Determines the Ability of a Test Compound to Inhibit PI3Kγ.
(§1) Activity of PI3Kγ was measured using ADP-Glo assay from Promega. PI3Kγ, N-terminal His-tagged recombinant full-length human p120γ (GenBank, Accession No. AF327656) was expressed in a Baculovirus infected Sf9 cell expression system. The ADP-Glo assay was performed to measure the amount of ADP generated from ATP hydrolysis coupled with PIP2 phosphorylation by the purified recombinant PI3Kγ (p110δ/p85α). PI3Kγ was incubated with 20 μM PIP2 substrate in the reaction buffer (10 mM Tris-HCl, pH 7.5, 50 mM NaCl, 5 mM MgCl2, 10 μM ATP and 0.5% DMSO) for 90 minutes at room temperature. The ADP generated was then detected by ADP-Glo assay from Promega, a luminescent ADP detection assay. The ADP-Glo assay is performed in two steps; first, after the kinase reaction, ADP-Glo Reagent is added to terminate the kinase reaction and deplete the remaining ATP. Second, the Kinase Detection Reagent is added to simultaneously convert ADP to ATP and allow the newly synthesized ATP to be measured using a luciferase/luciferin reaction.
(In general: In ADP-Glo the light output rises with the ADP produced.)

A further assay addresses T2, PI3Kβ (p110β/p85α) (Homo sapiens, UniProt P42338).
T2 construct: His (N); made in house; host or cells: Baculovirus-infected Sf9 cells
Put plainly: PI3Kβ ADP-Glo assay. Type of assay: biochemical. Particulars: 20 μM PIP2, 10 μM ATP, 90 minutes. On the procedure: (B) an In Vitro Assay which Determines the Ability of a Test Compound to Inhibit PI3Kβ.
as §1, with “PI3Kβ” for “PI3Kγ”, “[…], a complex of” for “PI3Kγ,”, “p110β” for “p120γ”, “NM_006219) and untagged recombinant full length human p85α (GenBank Accession No. XM—043865) were co-expressed” for “AF327656) was expressed”, “PI3Kβ (p110β/p85α). PI3Kβ” for “PI3Kγ (p110δ/p85α). PI3Kγ”

The target of assay [1] is T3, mTor serine/threonine protein kinase (Homo sapiens, UniProt P42345).
T3 construct: FLAG; made in house; host or cells: Baculovirus expression system in Sf21 cells
Put plainly: mTor kinase radioisotope assay. In kind it is biochemical. Particulars: 70 uM ATP, 40 minutes; read-out: m-TOR IC50. In a few lines: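 FLAG-tagged full-length recombinant human mTor from baculovirus/Sf21, incubated with p70S6K C-terminal fragment (2 mg/ml) and 70 uM ATP plus 33P-ATP tracer in 50 mM HEPES pH 7.5, 3 mM MnCl2, 40 min at room temperature. Phosphoric acid stop, filtermat capture, scintillation counting; IC50 from sigmoidal dose-response fit.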

In a further assay the test system is T-84. Kind of assay: Cell proliferation assay (CellTiter-Glo). Type of assay: cell-based. Particulars: Homo sapiens, T84; Colon; 72 hours, 0.5% fetal bovine serum; read-out: antiproliferative activity IC50, T-84. In a few lines: (§2)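 5,000–10,000 cells/well; compound titration, 72 h, 0.5% FBS. ATP luminescence read 30 min after lysis/substrate addition.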
For orientation: ATP-based viability assays read luminescence as a measure of living cells.

The test system of another assay is SW620. Kind of assay: Cell proliferation assay (CellTiter-Glo). Type of assay: cell-based. Particulars: Homo sapiens, SW-620; Colon; 72 hours, 0.5% fetal bovine serum; read-out: antiproliferative activity IC50, SW620. The gist of the method: as §2
A further assay concerns H2122. Put plainly: Cell proliferation assay (CellTiter-Glo). Type of assay: cell-based. Particulars: Homo sapiens, NCI-H2122; NSCLC; 72 hours, 0.5% fetal bovine serum; read-out: antiproliferative activity IC50, H2122. The gist of the method: as §2
The subject of another assay is H358. Kind of assay: Cell proliferation assay (CellTiter-Glo). To be noted: Homo sapiens, NCI-H358; NSCLC; 72 hours, 0.5% fetal bovine serum; read-out: antiproliferative activity IC50, H358. Type of assay: cell-based. The gist of the method: as §2
A further assay has as its system SW403. Kind of assay: Cell proliferation assay (CellTiter-Glo). Type of assay: cell-based. To be noted: Homo sapiens, SW-403; Colon; 72 hours, 0.5% fetal bovine serum; read-out: antiproliferative activity IC50, SW403. In a few lines:
as §2

T2 sequence (P42338 whole entry): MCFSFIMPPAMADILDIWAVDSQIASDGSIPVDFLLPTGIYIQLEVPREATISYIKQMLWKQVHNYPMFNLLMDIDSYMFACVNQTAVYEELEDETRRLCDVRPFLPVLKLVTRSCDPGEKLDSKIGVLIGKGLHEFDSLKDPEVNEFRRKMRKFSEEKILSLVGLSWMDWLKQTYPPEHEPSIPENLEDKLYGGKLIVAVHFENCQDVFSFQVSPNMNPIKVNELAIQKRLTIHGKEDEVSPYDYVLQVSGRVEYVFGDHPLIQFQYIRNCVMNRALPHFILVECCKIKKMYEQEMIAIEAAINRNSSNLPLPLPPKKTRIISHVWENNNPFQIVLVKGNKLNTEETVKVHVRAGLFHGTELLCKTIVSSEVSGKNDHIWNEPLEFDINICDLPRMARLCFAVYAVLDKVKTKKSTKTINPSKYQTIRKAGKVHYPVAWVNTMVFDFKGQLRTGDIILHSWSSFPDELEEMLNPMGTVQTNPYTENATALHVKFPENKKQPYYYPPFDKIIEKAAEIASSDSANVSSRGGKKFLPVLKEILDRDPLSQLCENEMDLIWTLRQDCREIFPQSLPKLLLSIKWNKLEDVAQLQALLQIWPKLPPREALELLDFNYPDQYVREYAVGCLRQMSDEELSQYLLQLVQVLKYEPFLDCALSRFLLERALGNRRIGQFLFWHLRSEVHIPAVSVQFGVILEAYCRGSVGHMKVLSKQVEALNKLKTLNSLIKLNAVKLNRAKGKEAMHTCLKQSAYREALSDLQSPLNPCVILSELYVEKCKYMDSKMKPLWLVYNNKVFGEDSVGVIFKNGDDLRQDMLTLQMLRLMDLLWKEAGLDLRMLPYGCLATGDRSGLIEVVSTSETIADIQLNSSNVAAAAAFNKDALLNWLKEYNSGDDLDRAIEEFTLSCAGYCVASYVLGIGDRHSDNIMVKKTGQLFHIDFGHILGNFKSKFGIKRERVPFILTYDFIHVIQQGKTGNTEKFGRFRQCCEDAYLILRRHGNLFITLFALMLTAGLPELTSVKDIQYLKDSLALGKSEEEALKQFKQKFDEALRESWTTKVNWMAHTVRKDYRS
T2 sequence (P27986 whole entry partner): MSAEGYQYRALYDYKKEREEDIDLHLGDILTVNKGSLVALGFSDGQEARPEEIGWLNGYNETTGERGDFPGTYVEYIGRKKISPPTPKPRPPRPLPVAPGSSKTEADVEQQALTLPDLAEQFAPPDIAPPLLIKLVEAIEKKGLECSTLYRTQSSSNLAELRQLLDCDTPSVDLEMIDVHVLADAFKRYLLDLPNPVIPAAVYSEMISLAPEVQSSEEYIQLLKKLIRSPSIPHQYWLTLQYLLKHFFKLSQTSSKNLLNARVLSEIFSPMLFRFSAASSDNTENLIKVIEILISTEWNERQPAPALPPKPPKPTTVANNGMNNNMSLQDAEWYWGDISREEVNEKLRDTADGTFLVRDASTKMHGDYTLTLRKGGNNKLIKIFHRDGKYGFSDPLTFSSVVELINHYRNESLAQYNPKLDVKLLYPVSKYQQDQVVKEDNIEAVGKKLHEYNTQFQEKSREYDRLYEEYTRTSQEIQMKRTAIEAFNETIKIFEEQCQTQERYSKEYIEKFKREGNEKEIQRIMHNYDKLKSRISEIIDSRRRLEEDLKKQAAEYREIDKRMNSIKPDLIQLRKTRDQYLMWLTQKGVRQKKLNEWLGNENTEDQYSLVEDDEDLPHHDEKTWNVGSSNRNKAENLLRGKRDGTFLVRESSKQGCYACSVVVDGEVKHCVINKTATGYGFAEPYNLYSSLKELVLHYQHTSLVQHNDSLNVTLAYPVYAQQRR
T1 sequence (P48736 whole entry): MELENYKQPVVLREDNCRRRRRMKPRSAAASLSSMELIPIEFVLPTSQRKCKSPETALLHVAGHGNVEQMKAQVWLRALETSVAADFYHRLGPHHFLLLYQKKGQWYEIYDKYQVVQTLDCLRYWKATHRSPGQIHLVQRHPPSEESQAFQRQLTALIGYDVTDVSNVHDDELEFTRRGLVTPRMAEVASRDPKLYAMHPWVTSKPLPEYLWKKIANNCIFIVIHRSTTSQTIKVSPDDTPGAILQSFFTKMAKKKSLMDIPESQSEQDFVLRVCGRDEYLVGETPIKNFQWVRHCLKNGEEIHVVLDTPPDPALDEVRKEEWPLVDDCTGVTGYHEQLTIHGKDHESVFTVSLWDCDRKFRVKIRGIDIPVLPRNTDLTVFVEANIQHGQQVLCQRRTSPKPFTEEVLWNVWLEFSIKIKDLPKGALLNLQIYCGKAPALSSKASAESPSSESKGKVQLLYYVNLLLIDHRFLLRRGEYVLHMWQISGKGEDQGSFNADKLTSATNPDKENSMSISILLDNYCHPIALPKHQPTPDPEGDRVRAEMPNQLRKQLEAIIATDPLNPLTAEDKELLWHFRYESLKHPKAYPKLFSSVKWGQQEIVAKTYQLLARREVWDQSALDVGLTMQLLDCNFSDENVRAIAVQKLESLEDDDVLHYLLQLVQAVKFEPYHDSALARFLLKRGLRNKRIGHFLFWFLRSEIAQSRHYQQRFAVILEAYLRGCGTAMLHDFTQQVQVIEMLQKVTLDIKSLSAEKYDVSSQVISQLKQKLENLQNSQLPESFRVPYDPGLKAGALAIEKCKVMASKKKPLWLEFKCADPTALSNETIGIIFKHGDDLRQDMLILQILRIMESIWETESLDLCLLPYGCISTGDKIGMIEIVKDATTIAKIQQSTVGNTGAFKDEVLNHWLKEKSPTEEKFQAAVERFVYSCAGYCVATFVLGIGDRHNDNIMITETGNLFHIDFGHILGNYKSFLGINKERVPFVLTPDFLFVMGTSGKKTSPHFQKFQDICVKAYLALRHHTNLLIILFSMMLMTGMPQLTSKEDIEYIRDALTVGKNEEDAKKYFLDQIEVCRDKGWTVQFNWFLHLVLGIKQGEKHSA

In general, IC50 refers to the concentration that gives 50% inhibition. In the case of `CN(Cc1cc2nc(-c3cccc4[nH]ncc34)nc(N3CCOCC3)c2s1)c1ncc(C(=O)NO)cn1` [Compound 54, 2-(((2-(1H-indazol-4-yl)-4-morpholinothieno[3,2-d]pyrimidin-6-yl)methyl)(methyl)amino)-N-hydroxypyrimidine-5-carboxamide], the half-maximal inhibitory concentration (IC50) at PI3Kγ (p120γ) and on PI3Kβ (p110β/p85α) was under 100 nM in each case.
For `CNc1ccc(-c2nc(N3CCOCC3)c3sc(CN(C)c4ncc(C(=O)NO)cn4)cc3n2)cn1` [Compound 111, N-Hydroxy-2-(methyl((2-(6-(methylamino)pyridin-3-yl)-4-morpholinothieno[3,2-d]pyrimidin-6-yl)methyl)amino)pyrimidine-5-carboxamide], the half-inhibitory concentration (IC50) on PI3Kγ (p120γ) was 100 to 1000 nM; in assay [1], under 100 nM; against PI3Kβ (p110β/p85α), 100 to 1000 nM; in the assay with T-84, 10 to 100 nM; in the assay on SW620, under 10 nM; in the assay on H2122, under 10 nM. Besides, the half-maximal inhibitory concentration (IC50) in the assay on H358 and in the assay on SW403 was under 10 nM each time.
Turning to `CN(Cc1cc2nc(-c3ccc(N)cc3)nc(N3CCOCC3)c2s1)c1ncc(C(=O)NO)cn1` [Compound 150, 2-(((2-(4-aminophenyl)-4-morpholinothieno[3,2-d]pyrimidin-6-yl)methyl)(methyl)amino)-N-hydroxypyrimidine-5-carboxamide], the concentration for half-maximal inhibition (IC50) is under 100 nM in assay [1]; 10 to 100 nM in the assay with T-84; under 10 nM with SW620; under 10 nM with H2122; under 10 nM in the assay with H358; under 10 nM in the assay on SW403.
